Results published in US12396461B2, “Functional peptides having antimicrobial activity against phytopathogenic microorganisms” (TOYOTA JIDOSHA KABUSHIKI KAISHA, priority 2019, dated 2025).
Several values for one entry are separate records, joined by “and”; a condition that tells them apart may be missing. Equal values may be shown once. Entries after “also recorded” stand apart in the source; their conditions may differ. Read-outs that look alike come from different tables or passages of the source. Where no end group is shown, it is not given here.

Columns and labels:
[1] = test system: Botrytis cinerea; test: Botrytis cinerea leaf inoculation test (tomato leaf); type: in vivo; conditions: 25° C. for 2 days
Protocol: In the present example, a suspension comprising Botrytis cinerea and a peptide to be tested was dropped on a plant leaf, and lesions were then observed by visual inspection to evaluate the antimicrobial activity of the tested peptide. First, the pores of Botrytis cinerea were suspended in a potato dextrose broth (PDB) to result in a spore concentration of 5×10^5 spores/ml, so as to prepare a PDB suspension spore solution. Subsequently, a peptide to be tested (TsORF6-1) was added to the PDB suspension spore solution, so that the final concentration of the peptide to be tested became 0 μM, 1 μM, 10 μM or 100 μM. Thereafter, 10 μl each of the PDB suspension spore solution containing the peptide to be tested was dropped on the front side and the back side of the leaf of tomato (variety name: “Momotaro Fight”). In this condition, incubation was carried out at 25° C. for 2 days. Thereafter, the front and back sides of the leaf were observed by visual inspection.

[2] = test system: Ralstonia solanacearum; conditions: 100 μM
[3] = test system: Colletotrichum destructivum; test: Colletotrichum destructivum leaf inoculation test (Chinese cabbage leaf); type: in vivo; conditions: 25° C. for 4 days; for lesion of Colletotrichum destructivum on Chinese cabbage leaf, result in words: FIG. 3; for Leaf inoculation test Chinese cabbage/Colletotrichum destructivum: lesions by visual inspection, symbols ◯/Δ/X not defined
Protocol: In the present example, a suspension comprising Colletotrichum destructivum and a peptide to be tested was dropped on a plant leaf, and lesions were then observed by visual inspection to evaluate the antimicrobial activity of the tested peptide. First, the pores of Colletotrichum destructivum were suspended in water to result in a spore concentration of 5×10^5 spores/ml, so as to prepare a water suspension of spores. Subsequently, a peptide to be tested (TsORF6-1) was added to the water suspension of spores, so that the final concentration of the peptide to be tested became 0 μM, 1 μM, 10 μM or 100 μM. Thereafter, 10 μl each of the water suspension of spores containing the peptide to be tested was dropped on the front side and the back side of the leaf of Chinese cabbage (variety name: “Kigokoro 85”). In this condition, incubation was carried out at 25° C. for 4 days. Thereafter, the front and back sides of the leaf were observed by visual inspection.

[4] = test system: Pyricularia oryzae; type: cell-based; parameters: key to Plate antimicrobial activity test Pyricularia oryzae, level: a case where hyphae extended to the entire well and no antimicrobial activity was found is defined as “level 0,”; a case where hyphae extended to less than a half of the well and thus the peptide inhibited the growth of the hyphae is defined as “level 1,”; a case where ungerminated spores were present and the peptide partially inhibited the germination is defined as “level 2,”; a case where all spores were ungerminated and the peptide completely inhibited the germination is defined as “level 3.”; conditions: for Plate antimicrobial activity test Pyricularia oryzae, level: 25° C. for 1 day or 2 days, microscopic observation
[5] = test system: Botrytis cinerea; type: cell-based; parameters: key to Plate antimicrobial activity test Botrytis cinerea, level: a case where hyphae extended to the entire well and no antimicrobial activity was found is defined as “level 0,”; a case where hyphae extended to less than a half of the well and thus the peptide inhibited the growth of the hyphae is defined as “level 1,”; a case where ungerminated spores were present and the peptide partially inhibited the germination is defined as “level 2,”; a case where all spores were ungerminated and the peptide completely inhibited the germination is defined as “level 3.”; conditions: for Plate antimicrobial activity test Botrytis cinerea, level: 25° C. for 1 day or 2 days, microscopic observation
[6] = test system: Colletotrichum orbiculare; type: cell-based; parameters: key to Plate antimicrobial activity test Colletotrichum orbiculare, level: a case where hyphae extended to the entire well and no antimicrobial activity was found is defined as “level 0,”; a case where hyphae extended to less than a half of the well and thus the peptide inhibited the growth of the hyphae is defined as “level 1,”; a case where ungerminated spores were present and the peptide partially inhibited the germination is defined as “level 2,”; a case where all spores were ungerminated and the peptide completely inhibited the germination is defined as “level 3.”; conditions: for Plate antimicrobial activity test Colletotrichum orbiculare, level: 25° C. for 1 day or 2 days, microscopic observation
[7] = test system: Pseudomonas syringae pv. tomato
[8] = test system: Xanthomonas oryzae pv. oryzae
[9] = test system: Fusarium oxysporum; type: cell-based; parameters: key to Plate antimicrobial activity test Fusarium oxysporum, level: a case where hyphae extended to the entire well and no antimicrobial activity was found is defined as “level 0,”; a case where hyphae extended to less than a half of the well and thus the peptide inhibited the growth of the hyphae is defined as “level 1,”; a case where ungerminated spores were present and the peptide partially inhibited the germination is defined as “level 2,”; a case where all spores were ungerminated and the peptide completely inhibited the germination is defined as “level 3.”
[10] = test system: Colletotrichum destructivum; type: cell-based; parameters: key to Plate antimicrobial activity test Colletotrichum destructivum, level: a case where hyphae extended to the entire well and no antimicrobial activity was found is defined as “level 0,”; a case where hyphae extended to less than a half of the well and thus the peptide inhibited the growth of the hyphae is defined as “level 1,”; a case where ungerminated spores were present and the peptide partially inhibited the germination is defined as “level 2,”; a case where all spores were ungerminated and the peptide completely inhibited the germination is defined as “level 3.”; conditions: for Plate antimicrobial activity test Colletotrichum destructivum, level: 25° C. for 1 day or 2 days, microscopic observation
[11] = test system: Erwinia carotovora subsp. carotovora; conditions: 100 μM
[12] = (FIG. 1, Table 3), concentration not given

Row | Sequence | Leaf inoculation test Chinese cabbage/Colletotrichum destructivum ([3]; peptide 10 μM) | Leaf inoculation test Chinese cabbage/Colletotrichum destructivum ([3]; peptide 100 μM) | Plate antimicrobial activity test Pyricularia oryzae, level ([4]; peptide 1 μM) | Plate antimicrobial activity test Pyricularia oryzae, level ([4]; peptide 10 μM) | Plate antimicrobial activity test Pyricularia oryzae, level ([4]; peptide 100 μM) | Plate antimicrobial activity test Botrytis cinerea, level ([5]; peptide 1 μM) | Plate antimicrobial activity test Botrytis cinerea, level ([5]; peptide 10 μM) | Plate antimicrobial activity test Botrytis cinerea, level ([5]; peptide 100 μM) | Plate antimicrobial activity test Colletotrichum orbiculare, level ([6]; peptide 1 μM) | Plate antimicrobial activity test Colletotrichum orbiculare, level ([6]; peptide 10 μM) | Plate antimicrobial activity test Colletotrichum orbiculare, level ([6]; peptide 100 μM) | Plate antimicrobial activity test Fusarium oxysporum, level [9] | Plate antimicrobial activity test Colletotrichum destructivum, level ([10]; peptide 1 μM) | Plate antimicrobial activity test Colletotrichum destructivum, level ([10]; peptide 10 μM) | Plate antimicrobial activity test Colletotrichum destructivum, level ([10]; peptide 100 μM) | also measured
1 | MKVMIVVKTKVKNKKVAKMMVK [TsORF6-1] | ◯ | ◯ | 0 | 0 | 2 | 0 | 0 | 3 | 0 | 0 | 2 | 2 and 0 | 0 | 0 | 3 | Leaf inoculation test Tomato/Botrytis cinerea ([1]; peptide 100 μM, tomato leaf, lesions by visual inspection, symbols ◯/Δ/X not defined): ◯; Inhibitory rate Ralstonia solanacearum ([2]; calculated from OD600 versus water added): −5.2%; OD600 Ralstonia solanacearum ([2]; cultured at 28° C. a whole day and night): 2.7; lesion of Colletotrichum destructivum on Chinese cabbage leaf, result in words ([3]; water suspension of spores containing 10 μl peptide): a lesion of Colletotrichum destructivum was not observed; lesion of Colletotrichum destructivum on Chinese cabbage leaf, result in words ([3]; water suspension of spores containing 100 μl peptide): a lesion of Colletotrichum destructivum was not observed; germination of Pyricularia oryzae, result in words [4, 12]: completely inhibited in terms of germination; also recorded: could inhibit germination; germination of Botrytis cinerea, result in words [5, 12]: completely inhibited in terms of germination; also recorded: could inhibit germination; germination of Colletotrichum orbiculare, result in words [6, 12]: completely inhibited in terms of germination; also recorded: could inhibit germination; growth of Pseudomonas syringae pv. tomato, result in words [7]: could inhibit the growth; Inhibitory rate Pseudomonas syringae pv. tomato ([7]; 100 μM): 90.6%; OD600 Pseudomonas syringae pv. tomato ([7]; 100 μM): 0.2; Inhibitory rate Xanthomonas oryzae pv. oryzae ([8]; 100 μM, calculated from OD600 versus water added): 47.6%; OD600 Xanthomonas oryzae pv. oryzae ([8]; 100 μM, cultured at 28° C. a whole day and night): 1.1; growth of Xanthomonas oryzae pv. oryzae, result in words ([8]; Table 4): could inhibit the growth; germination of Fusarium oxysporum, result in words [9]: completely inhibited in terms of germination; also recorded: could inhibit germination; germination of Colletotrichum destructivum, result in words [10, 12]: completely inhibited in terms of germination; also recorded: could inhibit germination; Inhibitory rate Erwinia carotovora subsp. carotovora [11]: −14.9%; OD600 Erwinia carotovora subsp. carotovora [11]: 2.2
2 | MKVMIVVKTKVKNKKVAKMMVKEDEKNKRVITMKEELMVVAEEEAYRRV RGGMGW (MKVMIVVKTKVKNKKVAKMMVKEDEKNKRVITMKEELMVVAEEEAYRRVRGGMGW; listed as Solanum lycopersicum) [TsORF6, peptide consisting of 55 amino acid residues identified in tomato xylem sap; total chain] | ◯ | ◯ | 0 | 0 | 2 | 0 | 0 | 3 | 0 | 0 | 1 | 3 and 0 | 0 | 0 | 0 | lesion of Botrytis cinerea on tomato leaf, result in words ([1]; FIG. 2, PDB suspension spore solution containing 100 μl peptide): a lesion of Botrytis cinerea was not observed
